How the values were obtained:
Assay type in all cases: binding
panel of 442 kinases [1] = target: T1, panel of 442 kinases (Homo sapiens, UniProt P22607, G697C); conditions: Compound Concentration 10 µM
T1 construct: purchased KINOMEscan
Source text: (§1) We assessed the selectivity of members of this scaffold using the KINOMEscan methodology across a near comprehensive panel of 442 kinases [[18,27]].

panel of 442 kinases [2] = target: T2, panel of 442 kinases (Homo sapiens, UniProt P35968); conditions: kinase VEGFR2; compound concentration 10 µM
T2 construct: purchased KINOMEscan
Source text: as §1

panel of 442 kinases [3] = target: T3, panel of 442 kinases (Homo sapiens, UniProt Q13188); conditions: Compound Concentration 10 µM
T3 construct: purchased KINOMEscan
T3 sequence (Q13188 1-491): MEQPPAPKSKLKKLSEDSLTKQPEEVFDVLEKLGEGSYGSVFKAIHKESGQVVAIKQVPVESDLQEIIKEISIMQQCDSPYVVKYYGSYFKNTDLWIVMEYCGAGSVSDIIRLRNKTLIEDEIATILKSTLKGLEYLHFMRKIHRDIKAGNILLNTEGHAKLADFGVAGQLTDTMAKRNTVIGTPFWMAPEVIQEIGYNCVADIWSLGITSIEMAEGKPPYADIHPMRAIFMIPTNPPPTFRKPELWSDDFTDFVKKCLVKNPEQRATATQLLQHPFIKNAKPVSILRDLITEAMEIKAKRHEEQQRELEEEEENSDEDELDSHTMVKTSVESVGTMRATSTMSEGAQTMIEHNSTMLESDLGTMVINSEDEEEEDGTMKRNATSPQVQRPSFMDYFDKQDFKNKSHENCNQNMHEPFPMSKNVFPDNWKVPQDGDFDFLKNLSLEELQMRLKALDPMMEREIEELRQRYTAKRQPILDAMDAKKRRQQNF
Source text: as §1

T2 sequence (P35968 20-1356): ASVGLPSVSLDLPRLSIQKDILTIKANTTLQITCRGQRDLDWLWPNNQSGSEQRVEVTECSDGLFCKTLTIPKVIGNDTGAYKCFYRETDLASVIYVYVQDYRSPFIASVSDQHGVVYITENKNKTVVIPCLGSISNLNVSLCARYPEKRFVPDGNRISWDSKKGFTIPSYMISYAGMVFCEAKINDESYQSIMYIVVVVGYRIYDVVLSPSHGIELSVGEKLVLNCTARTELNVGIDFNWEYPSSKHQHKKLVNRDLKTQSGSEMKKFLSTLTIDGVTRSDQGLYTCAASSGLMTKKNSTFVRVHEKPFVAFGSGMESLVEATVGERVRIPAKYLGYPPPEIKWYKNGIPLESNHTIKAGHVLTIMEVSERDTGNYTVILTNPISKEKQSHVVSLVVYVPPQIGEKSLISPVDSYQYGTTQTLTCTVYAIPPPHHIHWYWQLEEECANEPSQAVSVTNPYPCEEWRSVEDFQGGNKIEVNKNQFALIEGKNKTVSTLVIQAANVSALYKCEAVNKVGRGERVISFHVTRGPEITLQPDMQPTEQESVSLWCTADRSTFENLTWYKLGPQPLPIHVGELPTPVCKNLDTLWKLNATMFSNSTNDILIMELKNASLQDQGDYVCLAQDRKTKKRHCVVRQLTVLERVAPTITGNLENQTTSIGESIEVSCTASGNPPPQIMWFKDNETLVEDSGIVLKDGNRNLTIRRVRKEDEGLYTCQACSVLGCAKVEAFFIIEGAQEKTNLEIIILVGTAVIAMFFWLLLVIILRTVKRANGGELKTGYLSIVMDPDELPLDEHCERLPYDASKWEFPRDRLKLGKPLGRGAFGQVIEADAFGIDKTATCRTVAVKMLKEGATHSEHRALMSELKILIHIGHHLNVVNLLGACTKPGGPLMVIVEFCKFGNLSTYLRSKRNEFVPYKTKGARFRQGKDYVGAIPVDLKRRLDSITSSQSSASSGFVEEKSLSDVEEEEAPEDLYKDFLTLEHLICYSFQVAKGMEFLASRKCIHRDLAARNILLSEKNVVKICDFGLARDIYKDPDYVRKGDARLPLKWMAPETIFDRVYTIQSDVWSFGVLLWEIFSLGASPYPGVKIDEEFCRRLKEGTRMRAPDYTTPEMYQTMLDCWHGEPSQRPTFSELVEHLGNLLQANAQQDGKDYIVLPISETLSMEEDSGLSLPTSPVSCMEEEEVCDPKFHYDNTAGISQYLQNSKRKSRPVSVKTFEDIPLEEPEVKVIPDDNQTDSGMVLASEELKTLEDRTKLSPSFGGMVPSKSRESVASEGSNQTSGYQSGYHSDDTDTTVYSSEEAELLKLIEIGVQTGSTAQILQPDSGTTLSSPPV
T1 sequence (P22607 23-806 G697C): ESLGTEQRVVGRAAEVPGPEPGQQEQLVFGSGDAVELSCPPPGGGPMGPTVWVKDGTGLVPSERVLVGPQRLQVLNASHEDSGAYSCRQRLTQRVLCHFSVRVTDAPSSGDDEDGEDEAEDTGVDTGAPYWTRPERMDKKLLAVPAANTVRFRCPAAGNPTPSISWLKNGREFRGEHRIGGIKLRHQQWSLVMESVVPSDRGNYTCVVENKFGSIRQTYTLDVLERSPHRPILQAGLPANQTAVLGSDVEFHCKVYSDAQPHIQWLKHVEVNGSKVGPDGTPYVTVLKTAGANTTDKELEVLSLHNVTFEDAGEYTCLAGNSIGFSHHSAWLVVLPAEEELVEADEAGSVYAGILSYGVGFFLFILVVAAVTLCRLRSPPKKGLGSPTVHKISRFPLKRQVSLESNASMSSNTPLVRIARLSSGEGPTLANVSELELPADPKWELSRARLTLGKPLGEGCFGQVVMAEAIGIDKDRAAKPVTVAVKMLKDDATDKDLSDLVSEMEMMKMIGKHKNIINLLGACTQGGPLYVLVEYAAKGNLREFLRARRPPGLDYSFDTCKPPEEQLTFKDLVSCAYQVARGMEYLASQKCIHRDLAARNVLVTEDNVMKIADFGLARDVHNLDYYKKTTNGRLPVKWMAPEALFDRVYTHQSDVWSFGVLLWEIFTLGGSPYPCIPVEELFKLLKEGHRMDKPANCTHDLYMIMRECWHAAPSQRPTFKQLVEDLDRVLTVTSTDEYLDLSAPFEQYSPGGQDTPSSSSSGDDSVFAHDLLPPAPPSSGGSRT

SMILES	KINOMEscan: FGFR3(G697C) (panel of 442 kinases [1])	% Ctrl, VEGFR2 (panel of 442 kinases [2]) [% Ctrl]	KINOMEscan: MST2 (panel of 442 kinases [3])
COc1cc(C(=O)N2CCC(N3CCN(C)CC3)CC2)ccc1Nc1ncc2c(n1)N(C)c1ccccc1C(=O)N2C [15 (LRRK2-IN-1)]	85	84	71
CCOc1cc(C(=O)N2CCC(N3CCN(C)CC3)CC2)ccc1Nc1ncc2c(n1)N(C1CCCC1)c1ccccc1C(=O)N2C [Compound 26]	100	100	100
COc1cc(C(=O)N2CCC(N3CCN(C)CC3)CC2)ccc1Nc1ncc2c(n1)N1CCc3cccc(c31)C(=O)N2C [Compound 24]	80	100	–
COc1cc(C(=O)N2CCC(N3CCN(C)CC3)CC2)ccc1Nc1ncc2c(n1)N(C1CCCC1)c1ccccc1C(=O)N2C [Compound 25, 11-cyclopentyl-2-((2-methoxy-4-(4-(4-methylpiperazin-1-yl)piperidine-1-carbonyl)phenyl)amino)-5-methyl-5H-benzo[e]pyrimido[5,4-b][1,4]diazepin-6(11H)-one]	100	100	100
